Measurements as given in patent US9546173B2 (Novartis AG, priority 2012, dated 2017).
Where two headings read alike, the source gives them in different places.

Target: activated ERK2 (Homo sapiens (Human), UniProt P28482)
Test: Activated ERK2 kinase assay (AlphaScreen, ERKtide peptide phosphorylation)
Type: biochemical
Description: Production of Activated ERK2 Protein:
Activated ERK2 protein was generated in insect cells by co-expression with a constitutively active form of MEK1. The ERK2 protein was expressed and purified as a nHis-PreScission-ERK2 tagged protein and then proteolytically processed to the full-length wild-type protein. […] Double-phosphorylated ERK2 protein was purified from the mixture by mono-Q column separation.
Activated ERK2 Kinase Assay:
A 16-point, half-log dilution series of compounds at 41× final concentration was used for generating IC50 curves. Compound dilution series were prepared in 100% DMSO. ERK2 was preincubated with compounds for 30 minutes at ambient temperature. Reaction was initiated by addition of a substrate cocktail of ERKtide peptide and ATP and was allowed to proceed for 2-3 hours at ambient temperature. Reaction was terminated by addition of 10 μL of a 2× stop buffer consisting of 100 mM Tris-Cl [pH 7.5], 25 mM EDTA, 0.01% Tween 20, 10 μg/mL of AlphaScreen Protein A Acceptor Beads, 10 μg/mL of Streptavidin Donor Beads (PerkinElmer, Waltham, Mass.), and 1.4 μg/mL phospho-EGF Receptor (Thr669) antibody (Cat #3056, Cell Signaling Technology, Danvers, Mass.). Terminated reactions were read, after overnight incubation in the dark, on an EnVision Multilabel Plate Reader (PerkinElmer, Waltham, Mass.), with excitation and emission wavelengths set to 680 nm and 570 nm, respectively. IC50 values were determined using a four-parameter fit.

[1] = […] ERK2, 200 nM ERKtide peptide, 35 μM ATP, 30 min preincubation, read-out: ERK2 IC50

Chain of activated ERK2 (P28482 whole entry): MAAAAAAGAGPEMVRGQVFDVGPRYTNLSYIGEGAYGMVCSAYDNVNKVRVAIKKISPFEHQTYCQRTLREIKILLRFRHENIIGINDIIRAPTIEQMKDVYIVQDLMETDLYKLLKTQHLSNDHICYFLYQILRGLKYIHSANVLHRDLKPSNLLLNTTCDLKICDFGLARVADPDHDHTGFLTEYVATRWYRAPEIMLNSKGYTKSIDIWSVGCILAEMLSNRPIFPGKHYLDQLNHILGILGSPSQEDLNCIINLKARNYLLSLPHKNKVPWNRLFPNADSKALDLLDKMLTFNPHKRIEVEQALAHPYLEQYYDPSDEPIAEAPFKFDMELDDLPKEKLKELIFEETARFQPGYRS

| Structure (SMILES) | IC50 (comparative example text, read-out: IC50 on ERK2) [nM] | IC50 [1] [nM] |
| --- | --- | --- |
| C[C@@H](NC(=O)N1Cc2cnc(NC3CCOCC3)nc2C1)c1ccccc1 [Comparative Example, reference compound] | 360 | – |
| CC1(C)c2cnc(NC3CCOCC3)nc2CN1C(=O)N[C@H](CO)c1ccccc1 [compound 1, (S)-N-(2-hydroxy-1-phenylethyl)-5,5-dimethyl-2-((tetrahydro-2H-pyran-4-yl)amino)-5H-pyrrolo[3,4-d]pyrimidine-6(7H)-carboxamide] | – | 14 |
| CC1(C)c2cnc(NC3CCOCC3)nc2CN1C(=O)N[C@H](CO)c1cccc(Cl)c1 [compound 2, (S)-N-(1-(3-chlorophenyl)-2-hydroxyethyl)-5,5-dimethyl-2-((tetrahydro-2H-pyran-4-yl)amino)-5H-pyrrolo[3,4-d]pyrimidine-6(7H)-carboxamide] | – | 4 |
| CC1(C)c2cnc(NC3CCOCC3)nc2CN1C(=O)NCc1cccnc1 [compound 3, 5,5-dimethyl-N-(pyridin-3-ylmethyl)-2-((tetrahydro-2H-pyran-4-yl)amino)-5H-pyrrolo[3,4-d]pyrimidine-6(7H)-carboxamide] | – | 894 |
| CC1(C)c2cnc(NC3CCOCC3)nc2CN1C(=O)NCc1cccc(S(C)(=O)=O)c1 [compound 4, 5,5-dimethyl-N-(3-(methylsulfonyl)benzyl)-2-((tetrahydro-2H-pyran-4-yl)amino)-5H-pyrrolo[3,4-d]pyrimidine-6(7H)-carboxamide] | – | 18 |
| CC1(C)c2cnc(NC3CCOCC3)nc2CN1C(=O)N[C@H]1CCCN(Cc2ccccc2F)C1 [compound 5, (S)-N-(1-(2-fluorobenzyl)piperidin-3-yl)-5,5-dimethyl-2-((tetrahydro-2H-pyran-4-yl)amino)-5H-pyrrolo[3,4-d]pyrimidine-6(7H)-carboxamide] | – | 15500 |
| CC1(C)c2cnc(NC3CCOCC3)nc2CN1C(=O)N[C@H]1CCCNC1 [compound 6, (S)-5,5-dimethyl-N-(piperidin-3-yl)-2-((tetrahydro-2H-pyran-4-yl)amino)-5H-pyrrolo[3,4-d]pyrimidine-6(7H)-carboxamide] | – | 2340 |
| CC1(C)c2cnc(NC3CCOCC3)nc2CN1C(=O)N[C@@H]1CCCNC1 [compound 7, (R)-5,5-dimethyl-N-(piperidin-3-yl)-2-((tetrahydro-2H-pyran-4-yl)amino)-5H-pyrrolo[3,4-d]pyrimidine-6(7H)-carboxamide] | – | 15300 |
| CC1(C)c2cnc(NC3CCOCC3)nc2CN1C(=O)N[C@@H]1CCCN(Cc2ccccc2F)C1 [compound 8, (R)-N-(1-(2-fluorobenzyl)piperidin-3-yl)-5,5-dimethyl-2-((tetrahydro-2H-pyran-4-yl)amino)-5H-pyrrolo[3,4-d]pyrimidine-6(7H)-carboxamide] | – | 82 |
| CC1(C)c2cnc(NC3CCOCC3)nc2CN1C(=O)N[C@@H]1CC1c1ccccc1 (stereo partly drawn) [compound 9, 5,5-dimethyl-N-((1R)-2-phenylcyclopropyl)-2-((tetrahydro-2H-pyran-4-yl)amino)-5H-pyrrolo[3,4-d]pyrimidine-6(7H)-carboxamide] | – | 23 |
| CC1(C)c2cnc(NC3CCS(=O)(=O)CC3)nc2CN1C(=O)N[C@H](CO)c1ccccc1 [compound 10, (S)-2-((1,1-dioxidotetrahydro-2H-thiopyran-4-yl)amino)-N-(2-hydroxy-1-phenylethyl)-5,5-dimethyl-5H-pyrrolo[3,4-d]pyrimidine-6(7H)-carboxamide] | – | 722 |
| CC1(C)c2cnc(NC3CCC(F)(F)CC3)nc2CN1C(=O)N[C@H](CO)c1ccccc1 [compound 11, (S)-2-((4,4-difluorocyclohexyl)amino)-N-(2-hydroxy-1-phenylethyl)-5,5-dimethyl-5H-pyrrolo[3,4-d]pyrimidine-6(7H)-carboxamide] | – | 146 |
| CC1(C)c2cnc(NC3CCOC3)nc2CN1C(=O)N[C@H](CO)c1ccccc1 (stereo partly drawn) [compound 12, N-((S)-2-hydroxy-1-phenylethyl)-5,5-dimethyl-2-((tetrahydrofuran-3-yl)amino)-5H-pyrrolo[3,4-d]pyrimidine-6(7H)-carboxamide] | – | 375 |
| CC1(C)c2cnc(NC3CCOCC3)nc2CN1C(=O)NCc1cc(F)cc(Cl)c1 [compound 13, N-(3-chloro-5-fluorobenzyl)-5,5-dimethyl-2-((tetrahydro-2H-pyran-4-yl)amino)-5H-pyrrolo[3,4-d]pyrimidine-6(7H)-carboxamide] | – | 8 |
| CC1(C)c2cnc(NC3CCOCC3)nc2CN1C(=O)NCC1CCCCO1 (stereo not drawn) [compound 14, 5,5-dimethyl-N-((tetrahydro-2H-pyran-2-yl)methyl)-2-((tetrahydro-2H-pyran-4-yl)amino)-5H-pyrrolo[3,4-d]pyrimidine-6(7H)-carboxamide] | – | 328 |
| CC1(C)c2cnc(NC3CCOCC3)nc2CN1C(=O)NCC1CCCOC1 (stereo not drawn) [compound 15, 5,5-dimethyl-N-((tetrahydro-2H-pyran-3-yl)methyl)-2-((tetrahydro-2H-pyran-4-yl)amino)-5H-pyrrolo[3,4-d]pyrimidine-6(7H)-carboxamide] | – | 842 |
| CC1(C)c2cnc(NC3CCOCC3)nc2CN1C(=O)NCC1CCOCC1 [compound 16, 5,5-dimethyl-2-((tetrahydro-2H-pyran-4-yl)amino)-N-((tetrahydro-2H-pyran-4-yl)methyl)-5H-pyrrolo[3,4-d]pyrimidine-6(7H)-carboxamide] | – | 362 |
| CC1(C)c2cnc(NC3CCOCC3)nc2CN1C(=O)N[C@H](CO)C1CCCCC1 [compound 17, (S)-N-(1-cyclohexyl-2-hydroxyethyl)-5,5-dimethyl-2-((tetrahydro-2H-pyran-4-yl)amino)-5H-pyrrolo[3,4-d]pyrimidine-6(7H)-carboxamide] | – | 67 |

Now from value to molecule:

| IC50 (comparative example text, read-out: IC50 on ERK2) [nM] | IC50 [1] [nM] | Structure (SMILES) |
| --- | --- | --- |
| – | 2390 | CC1(C)c2cnc(NC3CCOCC3)nc2CN1C(=O)NC1CCOCC1 [compound 18, 5,5-dimethyl-N-(tetrahydro-2H-pyran-4-yl)-2-((tetrahydro-2H-pyran-4-yl)amino)-5H-pyrrolo[3,4-d]pyrimidine-6(7H)-carboxamide] |
| – | 21 | CC1(C)c2cnc(NC3CCOCC3)nc2CN1C(=O)NCc1cc(F)cc(F)c1 [compound 19, N-(3,5-difluorobenzyl)-5,5-dimethyl-2-((tetrahydro-2H-pyran-4-yl)amino)-5H-pyrrolo[3,4-d]pyrimidine-6(7H)-carboxamide] |
| – | 16 | CC1(C)c2cnc(NC3CCOCC3)nc2CN1C(=O)NCc1cccc(F)c1 [compound 20, N-(3-fluorobenzyl)-5,5-dimethyl-2-((tetrahydro-2H-pyran-4-yl)amino)-5H-pyrrolo[3,4-d]pyrimidine-6(7H)-carboxamide] |
| – | 6 | CC1(C)c2cnc(NC3CCOCC3)nc2CN1C(=O)NCc1cccc(Cl)c1 [compound 21, N-(3-chlorobenzyl)-5,5-dimethyl-2-((tetrahydro-2H-pyran-4-yl)amino)-5H-pyrrolo[3,4-d]pyrimidine-6(7H)-carboxamide] |
| – | 2 | C[C@@H](NC(=O)N1Cc2nc(NC3CCOCC3)ncc2C1(C)C)c1cccc(Cl)c1 [compound 22, (R)-N-(1-(3-chlorophenyl)ethyl)-5,5-dimethyl-2-((tetrahydro-2H-pyran-4-yl)amino)-5H-pyrrolo[3,4-d]pyrimidine-6(7H)-carboxamide] |
| – | 22 | CC1(C)c2cnc(NC3CCOCC3)nc2CN1C(=O)NCc1ccc(F)cc1 [compound 24, N-(4-fluorobenzyl)-5,5-dimethyl-2-((tetrahydro-2H-pyran-4-yl)amino)-5H-pyrrolo[3,4-d]pyrimidine-6(7H)-carboxamide] |
| – | 193 | CC1(C)c2cnc(NC3CCCOC3)nc2CN1C(=O)N[C@H](CO)c1ccccc1 (stereo partly drawn) [compound 25, N-((S)-2-hydroxy-1-phenylethyl)-5,5-dimethyl-2-((tetrahydro-2H-pyran-3-yl)amino)-5H-pyrrolo[3,4-d]pyrimidine-6(7H)-carboxamide] |
| – | 125 | CC1(C)c2cnc(NC3CCOCC3)nc2CN1C(=O)NC(c1ccccc1)C(F)(F)F (stereo not drawn) [compound 26, 5,5-dimethyl-2-((tetrahydro-2H-pyran-4-yl)amino)-N-(2,2,2-trifluoro-1-phenylethyl)-5H-pyrrolo[3,4-d]pyrimidine-6(7H)-carboxamide] |
| – | 202 | CN(Cc1ccccc1)C(=O)N1Cc2nc(NC3CCOCC3)ncc2C1(C)C [compound 27, N-benzyl-N,5,5-trimethyl-2-((tetrahydro-2H-pyran-4-yl)amino)-5H-pyrrolo[3,4-d]pyrimidine-6(7H)-carboxamide] |
| – | 10 | CC1(C)c2cnc(NC3CCOCC3)nc2CN1C(=O)NCc1ccc(Cl)cc1 [compound 28, N-(4-chlorobenzyl)-5,5-dimethyl-2-((tetrahydro-2H-pyran-4-yl)amino)-5H-pyrrolo[3,4-d]pyrimidine-6(7H)-carboxamide] |
| – | 159 | CC1(C)c2cnc(NC3CCOCC3)nc2CN1C(=O)NCc1ccccc1Cl [compound 29, N-(2-chlorobenzyl)-5,5-dimethyl-2-((tetrahydro-2H-pyran-4-yl)amino)-5H-pyrrolo[3,4-d]pyrimidine-6(7H)-carboxamide] |
| – | 49 | CC1(C)c2cnc(NC3CCOCC3)nc2CN1C(=O)NCc1nc2ccccc2s1 [compound 30, N-(benzo[d]thiazol-2-ylmethyl)-5,5-dimethyl-2-((tetrahydro-2H-pyran-4-yl)amino)-5H-pyrrolo[3,4-d]pyrimidine-6(7H)-carboxamide] |
